Experimental data from EP4574151A1, “INHIBITORS OF G12V-MUTATED RAS PROTEIN TO TREAT CANCER” (Personather Spolka Z Ograniczona Odpowiedzialnoscia, priority 2023, dated 2025).
“Also recorded” adds a separate entry of the source.

Experiments:
BALB/c mice = test: Acute toxicity after oral administration (Acute Toxicity test TG425); type: in vivo; conditions: female BALB/c mice, oral by gastric probe, 40 mg of substance in corn oil, three mice, observed two weeks
From the text: The study was planned according to Acute Toxicity Test 425 (oral administration) - higher-lower-dose procedure, in accordance with the OECD regulation of October 3, 2008. The test procedure described in these guidelines is useful in minimizing the number of animals needed to estimate the acute toxicity after oral administration of potential drugs. In addition to the LD50 assessment and confidence intervals, the test allows for the observation of signs of toxicity. For this purpose, an experiment was agreed upon with the Local Ethics Committee for Animal Experimentation, using BALB/c mice. The TG425 method allows for the estimation of LD50 values with confidence intervals, and the results allow for the classification of substances according to the global harmonized system for the classification of chemicals that cause acute toxicity.
A sequential test, utilizing a maximum of 5 animals, was applied, which is known as the limit test. A test dose of either 2000 or uniquely 5000 mg/kg can be used. The testing procedures at 2000 and 5000 mg/kg differ slightly (see Sections 23-25 for the limit test at 2000 mg/kg and Sections 26-30 for the limit test at 5000 mg/kg). The selection of a sequential testing plan increases the statistical power, and a deliberate deviation from the limit test rejection procedure was made for compounds with an LD50 near the limit dose; i.e. committing an error on the side of caution. As with any limit test protocol, the probability of correct compound classification will decrease, as the actual LD50 value more closely resembles the limit dose.
• 1. Female Balb/c mice, which were 50-56 days postpartum, were used for the purposes of this experiment. • 2. Mice underwent a 1-week quarantine after being transported to the laboratory. • 3. The studied molecules (PER154A, PER160A, PER170A, PER176A) were suspended according to the TG425 protocol, i.e. 40 mg of substance in […] of laboratory corn oil and orally administered through a plastic gastro probe (used: 20ga (0.9 mm OD x 0.5 mm ID), 38 mm), which was suitable for the size of the animal (17-21 g). The mice were observed and weighed almost daily. • 4. Mouse housing conditions: up to 4 mice per cage; temperature: 23.2 - 23.40°C; humidity: 27.6 - 40.9% relative humidity. • 5. Two weeks later (time counted separately for each mouse), a resection was performed to analyze internal organs for any abnormalities.

SW480 cell line = test: Western Blot analysis of the RAS-controlled signal transduction pathway in a cancer cell line expressing KRASG12V; type: cell-based; conditions: SW480 cell line with RASG12V mutation; 1, 5 and 10 µM; 24 hours; serum-free
From the text: Analysis of the impact of the tested compound on the signal transduction pathway controlled by RAS family proteins in cancer cell lines expressing KRASG12V based on the Western Blot method.
The example illustrates the impact of the PER154A and PER160A molecules on the signal transduction pathway in the cancer cell line SW480.
• 1. SW480 cell line at 80-90% confluence was rinsed with PBS without Mg2+ and Ca2+ ions. Remove PBS. • 2. Cells were detached from the vessel using Trypsin-EDTA (0.05%, 1x) for 1-3 minutes at 37°C. • 3. Cells were transferred to a 15 ml tube, centrifuged (200xg, 4 min) and suspended in DMEM High Glucose (HG) medium with 10% bovine serum and antibiotics. • 4. Cells were counted. • 5. 5x10^5 cells were added to each well of a 6-well plate for adherent culture. • 6. The above medium was replenished and left for approximately 24 hours.
• 7. Cells were washed 2-3 times with buffered saline solution without Mg2+ and Ca2+ ions. PBS was carefully removed each time. • 8. 2 ml of DMEM HG medium with antibiotics and without serum was added, left for approximately 24 hours.
• 9. The cells were washed 2-3 times with buffered saline without Mg2+ and Ca2+ ions. PBS was carefully removed each time. • 10. […]

NCI-H1975 = test: Toxicity against cancer cells expressing wild type RAS; type: cell-based; conditions: summary statement
Method: The results of in vitro analyses were presented in the examples. Commercially available cancer cell lines were used for the studies, including SW480, SW620, and COR-L23, showing endogenous expression of KRASG12V, as well as a cell line with exogenously introduced KRASG12V mutation (using methods of genetic engineering) - the DK-MGEGFRvIIIKRASG12V line. Additionally, the cancer cell line NCI- H1975, characterized by the expression of wild type RASWT proteins, was also analyzed.

| Compound | safety in acute oral toxicity test (BALB/c mice) | impact on downstream signal transduction pathways in relation to RASG12V (AKT, ERK phosphorylation) (SW480 cell line) | toxicity against cancer cells expressing normal RAS protein (NCI-H1975) |
| --- | --- | --- | --- |
| O=C(Nc1ccc(F)cc1)c1ccc2c(c1)C1C3CCC(C3)C1C(c1ccccc1)N2 (stereo not drawn) [PER160A] | safe for mice | Significant impact; also recorded: blocks | no toxicity |
| O=C(Nc1ccc2c(c1)OCCO2)c1ccc2c(c1)C1C3CCC(C3)C1C(c1ccccc1)N2 (stereo not drawn) [PER154A] | safe and safe for mice | Significant impact; also recorded: blocks | no toxicity |
